pIC50: −log10 of the molar value. Where two headings read alike, the source gives them in different places.
What was measured:
[1] = tested on: P. falciparum male gametocytes; assay: P. falciparum Dual Gamete Formation Assay (PfDGFA), male readout (exflagellation); assay type: cell-based, Plasmodium falciparum NF54; conditions: for Average inhibition male (%) / % inhibition male (individual replicates) R1 / % inhibition male (individual replicates) R3 / % inhibition male (individual replicates) R4 / inhibition at 2 µM: 24h preincubation with gametocytes; for Selectivity Ratio M: HepG2 Tox50 versus male IC50; for HitlevelM: number of replicates with >50% inhibition in the male readout
Procedure, shortened: (§1)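 First, day-14 P. falciparum NF54 gametocytes receive compound for 24 h at 37°C in 1% O2/3% CO2. Next, ookinete medium with Cy3 anti-Pfs25 triggers gametogenesis at 28°C and male exflagellation is imaged. Finally, after 24 h in the dark, Cy3-labelled females are imaged.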

[2] = tested on: P. falciparum female gametocytes; assay: P. falciparum Dual Gamete Formation Assay (PfDGFA), female readout (Pfs25-positive female gametes); assay type: cell-based, Plasmodium falciparum NF54; conditions: for Average inhibition female (%) / % inhibition female (individual replicates) R1 / % inhibition female (individual replicates) R3 / % inhibition female (individual replicates) R4 / inhibition at 2 µM: 24h preincubation with gametocytes; for Selectivity ratio F: HepG2 Tox50 versus female IC50; for pIC50: PfDGFA, 24 h incubation with gametocytes before induction, female gamete readout, read-out: Female IC50; for HitlevelF: number of replicates with >50% inhibition in the female readout
Procedure, shortened: as §1

[3] = tested on: HepG2 cells; assay: HepG2 cytotoxicity counter-screen; conditions: for Tox50: cytotoxic activity against HepG2 cells
[4] = PfDGFA, 24 h incubation with gametocytes before induction, exflagellation readout, read-out: Male IC50
[5] = PfDGFA at 2µM, average of replicates
[6] = Plasmodium falciparum, PfDGFA, 24 h incubation with gametocytes before induction, exflagellation readout, read-out: Male IC50

Structure (SMILES)	Average inhibition male (%) ([1]; 2µM, average of replicates)	% inhibition male (individual replicates) R1 ([1]; 2µM, replicate R1) [%]	% inhibition male (individual replicates) R3 ([1]; 2µM, replicate R3) [%]	% inhibition male (individual replicates) R4 ([1]; 2µM, replicate R4) [%]	Selectivity Ratio M [1]	pIC50 [1, 4]	Average inhibition female (%) ([2]; 2µM, average of replicates)	% inhibition female (individual replicates) R1 ([2]; 2µM, replicate R1) [%]	% inhibition female (individual replicates) R3 ([2]; 2µM, replicate R3) [%]	% inhibition female (individual replicates) R4 ([2]; 2µM, replicate R4) [%]	Selectivity ratio F [2]	pIC50 [2]	Tox50 [3] [µM]	other results
S=C(NN=Cc1ccccn1)NC1CC2C=CC1C2 (stereo not shown) [TCMDC-125752]	101.0	99.9	101.6	102.9	0.29	6.30	59.8	34.4	45.5	74.2	0.3	6.32	0.14	–
O=C(Cc1cccc(O)c1)NCC(Cc1ccc(O)cc1)c1ccccc1 (stereo not shown) [TC08]	–	–	–	–	–	–	–	–	–	–	–	–	–	Cytotox ratio Pf Male [1]: 58.1; pIC50 ([1]; this study, read-out: Pf DGFA IC50 MALE): 5.76; Cytotox ratio Pf Female [2]: 10.0; DGFA Tox50 HepG2 ([3]; HepG2 value reported with the DGFA screen): 100 µM; Mean TOX ([3]; mean of the HepG2 TOX50 values): 100.00 µM
O=C(O)C(=O)O.Oc1c(CN2CCC(Cc3ccccc3)CC2)cc(Cl)c2cccnc12 [TCMDC-124594]	92.4	97.5	93.3	86.9	2.09	5.70	49.8	37.8	58.8	51.4	3.66	5.94	4.17	–
Nc1nc(N)c2c(ccc3c2ccn3Cc2ccc3c(c2)OCO3)n1 [TCMDC-137808]	–	–	–	–	0.19	6.12	–	–	–	–	0.18	6.08	0.15	Average inhibition male (%) [1, 5]: 70.0%; % inhibition male (individual replicates) R1 ([1]; PfDGFA at 2µM, replicate R1): 66.3%; % inhibition male (individual replicates) R3 ([1]; PfDGFA at 2µM, replicate R3): 77.8%; % inhibition male (individual replicates) R4 ([1]; PfDGFA at 2µM, replicate R4): 76.3%; HitlevelM ([1]; 2µM): 4; Average inhibition female (%) [2, 5]: 83.7%; % inhibition female (individual replicates) R1 ([2]; PfDGFA at 2µM, replicate R1): 77.5%; % inhibition female (individual replicates) R3 ([2]; PfDGFA at 2µM, replicate R3): 80.4%; % inhibition female (individual replicates) R4 ([2]; PfDGFA at 2µM, replicate R4): 88.7%; HitlevelF ([2]; 2µM): 4
C=CC(C)C1OC(=O)c2cc(OC)cc(OC)c21 (stereo not shown) [TCMDC-138676]	100.2	101.1	101.1	99.6	2.76	6.24	94.9	92.0	102.0	91.3	1.37	5.94	1.57	–
CCc1c(CCNCCCCCCNC(C)(C)Cc2ccc3c(c2CC)OCO3)ccc(OC)c1OC.Cl [TCMDC-132055]	–	–	–	–	2.57	5.86	–	–	–	–	0.81	5.36	3.55	Average inhibition male (%) [1, 5]: 75.9%; % inhibition male (individual replicates) R1 ([1]; PfDGFA at 2µM, replicate R1): 71.0%; % inhibition male (individual replicates) R3 ([1]; PfDGFA at 2µM, replicate R3): 61.7%; % inhibition male (individual replicates) R4 ([1]; PfDGFA at 2µM, replicate R4): 83.6%; HitlevelM ([1]; 2µM): 4; Average inhibition female (%) [2, 5]: 27.4%; % inhibition female (individual replicates) R1 ([2]; PfDGFA at 2µM, replicate R1): 20.6%; % inhibition female (individual replicates) R3 ([2]; PfDGFA at 2µM, replicate R3): -1.3%; % inhibition female (individual replicates) R4 ([2]; PfDGFA at 2µM, replicate R4): 28.0%; HitlevelF ([2]; 2µM): 1
CN1CCN(c2ccc(Nc3ncc(C#N)c(Nc4ccccc4C(N)=O)n3)cc2)CC1.Cl [TCMDC-134116]	–	–	–	–	137.11	–	–	–	–	–	0.4	–	3.71	inhibition at 2 µM ([1]; Plasmodium falciparum, 2µM, average of replicates, read-out: Average inhibition male (%)): 100%; inhibition at 2 µM ([1]; Plasmodium falciparum, 2µM, replicate R1, read-out: % inhibition male (individual replicates) R1): 98.7%; inhibition at 2 µM ([1]; Plasmodium falciparum, 2µM, replicate R2, read-out: % inhibition male (individual replicates) R2): 101%; inhibition at 2 µM ([1]; Plasmodium falciparum, 2µM, replicate R3, read-out: % inhibition male (individual replicates) R3): 97.3%; inhibition at 2 µM ([1]; Plasmodium falciparum, 2µM, replicate R4, read-out: % inhibition male (individual replicates) R4): 104%; pIC50 [1, 6]: 7.52; inhibition at 2 µM ([2]; Plasmodium falciparum, 2µM, average of replicates, read-out: Average inhibition female (%)): -1.7%; inhibition at 2 µM ([2]; Plasmodium falciparum, 2µM, replicate R1, read-out: % inhibition female (individual replicates) R1): 7.5%; inhibition at 2 µM ([2]; Plasmodium falciparum, 2µM, replicate R2, read-out: % inhibition female (individual replicates) R2): 3%; inhibition at 2 µM ([2]; Plasmodium falciparum, 2µM, replicate R3, read-out: % inhibition female (individual replicates) R3): -11.3%; inhibition at 2 µM ([2]; Plasmodium falciparum, 2µM, replicate R4, read-out: % inhibition female (individual replicates) R4): -6.1%; pIC50 ([2]; Plasmodium falciparum): 5.04
COc1cc2nc(N3CCC(CNC(=O)c4ccc(-c5ccc(-c6noc(C)n6)cc5)cc4)CC3)nc(N)c2cc1OC [TCMDC-138754]	99.2	101.8	98.0	96.9	6	6.21	48.8	31.8	47.5	53.9	6.02	6.21	3.68	–
CS(=O)(=O)O.FC(F)(F)COc1c(CCNCCCCNCCc2ccc3ccccc3c2OCC(F)(F)F)ccc2ccccc12 [TCMDC-137169]	91.7	101.1	96.8	99.1	3.23	6.09	87.0	87.1	97.3	102.2	2.09	5.90	2.63	–
COc1ccc(NC(=O)c2ccc(OCCCCCCCOc3ccc(C(=O)Nc4ccc(OC)c(N5CCN(C)CC5)c4)cc3)cc2)cc1N1CCN(C)CC1.O=C(O)C(=O)O [TCMDC-139007]	92.9	92.7	82.0	95.6	4.37	6.05	47.5	33.2	33.3	62.1	2.96	5.88	3.94	–
FC(F)(F)c1ccc2[nH]c(-c3ccc(-c4ccc(CNCCN5CCNCC5)cc4)cc3)nc2c1.O=C(O)C(F)(F)F [TCMDC-132865]	–	–	–	–	9.44	–	–	–	–	–	2.26	–	13.76	inhibition at 2 µM ([1]; Plasmodium falciparum, PfDGFA at 2µM, average of replicates, read-out: Average inhibition male (%)): 69.5%; inhibition at 2 µM ([1]; Plasmodium falciparum, PfDGFA at 2µM, replicate R1, read-out: % inhibition male (individual replicates) R1): 60.9%; inhibition at 2 µM ([1]; Plasmodium falciparum, PfDGFA at 2µM, replicate R2, read-out: % inhibition male (individual replicates) R2): 79.2%; inhibition at 2 µM ([1]; Plasmodium falciparum, PfDGFA at 2µM, replicate R3, read-out: % inhibition male (individual replicates) R3): 39.1%; inhibition at 2 µM ([1]; Plasmodium falciparum, PfDGFA at 2µM, replicate R4, read-out: % inhibition male (individual replicates) R4): 98.9%; pIC50 [1, 6]: 5.84; HitlevelM ([1]; 2µM): 3; inhibition at 2 µM ([2]; Plasmodium falciparum, PfDGFA at 2µM, average of replicates, read-out: Average inhibition female (%)): 29.2%; inhibition at 2 µM ([2]; Plasmodium falciparum, PfDGFA at 2µM, replicate R1, read-out: % inhibition female (individual replicates) R1): 27.7%; inhibition at 2 µM ([2]; Plasmodium falciparum, PfDGFA at 2µM, replicate R2, read-out: % inhibition female (individual replicates) R2): 31%; inhibition at 2 µM ([2]; Plasmodium falciparum, PfDGFA at 2µM, replicate R3, read-out: % inhibition female (individual replicates) R3): 31%; inhibition at 2 µM ([2]; Plasmodium falciparum, PfDGFA at 2µM, replicate R4, read-out: % inhibition female (individual replicates) R4): 27.1%; pIC50 ([2]; Plasmodium falciparum): 5.22; HitlevelF ([2]; 2µM): 0

From PMC10584170, “Machine learning-based phenotypic imaging to characterise the targetable biology of Plasmodium falciparum male gametocytes for the development of transmission-blocking antimalarials” (PLOS Pathogens, 2023)
